One block for each molecule: values may come before it.
System: K98450-129-R-PDC complex spheroid growth, percent test/control
Experiment: Anticancer human tumor K98450-129-R-PDC patient-derived colon adenocarcinoma cell line growth inhibition [RAS]
Conditions: for IC50: curve of first compound; for viability, T/C: stronger effect = lower value
Procedure, shortened: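 Tumour cells grown as complex spheroids with HUVEC endothelial cells and mesenchymal stem cells, treated with RAS pathway inhibitor combinations. Each agent spans half-log steps from near clinical Cmax, or 10 microM where Cmax is unknown.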

[1] = second compound 0.000949 µM, first compound 0.00316 µM
[2] = second compound 0.000949 µM, first compound 0.01 µM
[3] = second compound 0.000949 µM, first compound 0.0316 µM
[4] = second compound 0.000949 µM, first compound 0.1 µM
[5] = second compound 0.000949 µM, first compound 0.316 µM
[6] = second compound 0.000949 µM, first compound 1 µM
[7] = second compound 0.003 µM, first compound 0.00316 µM
[8] = second compound 0.003 µM, first compound 0.01 µM
[9] = second compound 0.003 µM, first compound 0.0316 µM
[10] = second compound 0.003 µM, first compound 0.1 µM
[11] = second compound 0.003 µM, first compound 0.316 µM
[12] = second compound 0.003 µM, first compound 1 µM
[13] = second compound 0.00949 µM, first compound 0.00316 µM
[14] = second compound 0.00949 µM, first compound 0.01 µM
[15] = second compound 0.00949 µM, first compound 0.0316 µM
[16] = second compound 0.00949 µM, first compound 0.1 µM
[17] = second compound 0.00949 µM, first compound 0.316 µM
[18] = second compound 0.00949 µM, first compound 1 µM
[19] = second compound 0.03 µM, first compound 0.00316 µM
[20] = second compound 0.03 µM, first compound 0.01 µM
[21] = second compound 0.03 µM, first compound 0.0316 µM
[22] = second compound 0.03 µM, first compound 0.1 µM
[23] = second compound 0.03 µM, first compound 0.316 µM
[24] = second compound 0.03 µM, first compound 1 µM
[25] = second compound 0.0949 µM, first compound 0.00316 µM
[26] = second compound 0.0949 µM, first compound 0.01 µM
[27] = second compound 0.0949 µM, first compound 0.0316 µM
[28] = second compound 0.0949 µM, first compound 0.1 µM
[29] = second compound 0.0949 µM, first compound 0.316 µM
[30] = second compound 0.0949 µM, first compound 1 µM
[31] = second compound 0.3 µM, first compound 0.00316 µM
[32] = second compound 0.3 µM, first compound 0.01 µM
[33] = second compound 0.3 µM, first compound 0.0316 µM
[34] = second compound 0.3 µM, first compound 0.1 µM
[35] = second compound 0.3 µM, first compound 0.316 µM
[36] = second compound 0.3 µM, first compound 1 µM
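Note: spheroids exposed to agents for seven days before the viability readout.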
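Throughout, for viability, T/C: luminescence used as a proxy for viable cell amount.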

IC50 (second compound 0.000949 µM): 85 nM | IC50 (second compound 0.003 µM): 21.5 nM | IC50 (second compound 0.00949 µM): < 3.16 nM | IC50 (second compound 0.03 µM): < 3.16 nM | IC50 (second compound 0.0949 µM): < 3.16 nM | IC50 (second compound 0.3 µM): < 3.16 nM
Structure (SMILES): C=CC(=O)Nc1cc(Nc2nccc(-c3cn(C)c4ccccc34)n2)c(OC)cc1N(C)CCN(C)C + CCn1c(-c2cccnc2C(C)OC)c2c3cc(ccc31)N1CCOC(CC(NC(=O)C(C(C)C)N(C)C(=O)C3(F)CCN(C(=O)C#CC(C)(C)N(C)C)CC3)C(=O)N3CCCC(N3)C(=O)OCC(C)(C)C2)C1
viability, T/C [1]: 76.9% | viability, T/C [2]: 63.9% | viability, T/C [3]: 77.4% | viability, T/C [4]: 44.5% | viability, T/C [5]: 20.1% | viability, T/C [6]: 8.96% | viability, T/C [7]: 59.5% | viability, T/C [8]: 51.5% | viability, T/C [9]: 48.8% | viability, T/C [10]: 24.4% | viability, T/C [11]: 14.3% | viability, T/C [12]: 10.2% | viability, T/C [13]: 39.2% | viability, T/C [14]: 41.6% | viability, T/C [15]: 28.4% | viability, T/C [16]: 20.9% | viability, T/C [17]: 11.1% | viability, T/C [18]: 8.95% | viability, T/C [19]: 37% | viability, T/C [20]: 30.9% | viability, T/C [21]: 28.4% | viability, T/C [22]: 18.1% | viability, T/C [23]: 9.5% | viability, T/C [24]: 9.54% | viability, T/C [25]: 34% | viability, T/C [26]: 32.4% | viability, T/C [27]: 26.2% | viability, T/C [28]: 16.2% | viability, T/C [29]: 11% | viability, T/C [30]: 9% | viability, T/C [31]: 34% | viability, T/C [32]: 28.9% | viability, T/C [33]: 25.3% | viability, T/C [34]: 16.5% | viability, T/C [35]: 10.1% | viability, T/C [36]: 9.52%

IC50 (second compound 0.000949 µM): 64.7 nM | IC50 (second compound 0.003 µM): 9.15 nM | IC50 (second compound 0.00949 µM): < 3.16 nM | IC50 (second compound 0.03 µM): < 3.16 nM | IC50 (second compound 0.0949 µM): < 3.16 nM | IC50 (second compound 0.3 µM): < 3.16 nM
Structure (SMILES): O=C(c1ccc(F)c(F)c1Nc1ccc(I)cc1F)N1CC(O)([C@@H]2CCCCN2)C1 + CCn1c(-c2cccnc2C(C)OC)c2c3cc(ccc31)N1CCOC(CC(NC(=O)C(C(C)C)N(C)C(=O)C3(F)CCN(C(=O)C#CC(C)(C)N(C)C)CC3)C(=O)N3CCCC(N3)C(=O)OCC(C)(C)C2)C1
viability, T/C [1]: 76.5% | viability, T/C [2]: 53.9% | viability, T/C [3]: 63.3% | viability, T/C [4]: 42.2% | viability, T/C [5]: 6.87% | viability, T/C [6]: 2.59% | viability, T/C [7]: 57.1% | viability, T/C [8]: 44.8% | viability, T/C [9]: 40.7% | viability, T/C [10]: 18% | viability, T/C [11]: 6.5% | viability, T/C [12]: 2.42% | viability, T/C [13]: 41.7% | viability, T/C [14]: 32% | viability, T/C [15]: 22% | viability, T/C [16]: 14.2% | viability, T/C [17]: 5.98% | viability, T/C [18]: 2.66% | viability, T/C [19]: 27.4% | viability, T/C [20]: 33.5% | viability, T/C [21]: 25.5% | viability, T/C [22]: 11% | viability, T/C [23]: 6.18% | viability, T/C [24]: 2.44% | viability, T/C [25]: 28.3% | viability, T/C [26]: 24.3% | viability, T/C [27]: 19.7% | viability, T/C [28]: 10.6% | viability, T/C [29]: 5.39% | viability, T/C [30]: 2.34% | viability, T/C [31]: 28.5% | viability, T/C [32]: 26.5% | viability, T/C [33]: 21.9% | viability, T/C [34]: 10.1% | viability, T/C [35]: 4.51% | viability, T/C [36]: 2.36%

Source: PubChem BioAssay AID2060891 (Molecular Pharmacology Branch, DTP, NCI, 2025)
